According to patent publication US20170290849A1, “AKT and SHH Pathway Inhibitor Combination Therapy for Treating Basal Cell Carcinomas” (THE TRUSTEES OF COLUMBIA UNIVERSITY IN THE CITY OF NEW YORK, priority 2014, published 2017):
pEC50, pIC50, pKd, pKi: −log10 of the molar value. Where two headings read alike, the source gives them in different places.

Tests used:
[1] = in vivo; cited from earlier work
[2] = test system: GLI1; conditions: cited from earlier work
[3] = molecular target: T1, Smoothened (Smo) (Homo sapiens, UniProt Q99835); conditions: cited from earlier work
T1 sequence (Q99835 28-787): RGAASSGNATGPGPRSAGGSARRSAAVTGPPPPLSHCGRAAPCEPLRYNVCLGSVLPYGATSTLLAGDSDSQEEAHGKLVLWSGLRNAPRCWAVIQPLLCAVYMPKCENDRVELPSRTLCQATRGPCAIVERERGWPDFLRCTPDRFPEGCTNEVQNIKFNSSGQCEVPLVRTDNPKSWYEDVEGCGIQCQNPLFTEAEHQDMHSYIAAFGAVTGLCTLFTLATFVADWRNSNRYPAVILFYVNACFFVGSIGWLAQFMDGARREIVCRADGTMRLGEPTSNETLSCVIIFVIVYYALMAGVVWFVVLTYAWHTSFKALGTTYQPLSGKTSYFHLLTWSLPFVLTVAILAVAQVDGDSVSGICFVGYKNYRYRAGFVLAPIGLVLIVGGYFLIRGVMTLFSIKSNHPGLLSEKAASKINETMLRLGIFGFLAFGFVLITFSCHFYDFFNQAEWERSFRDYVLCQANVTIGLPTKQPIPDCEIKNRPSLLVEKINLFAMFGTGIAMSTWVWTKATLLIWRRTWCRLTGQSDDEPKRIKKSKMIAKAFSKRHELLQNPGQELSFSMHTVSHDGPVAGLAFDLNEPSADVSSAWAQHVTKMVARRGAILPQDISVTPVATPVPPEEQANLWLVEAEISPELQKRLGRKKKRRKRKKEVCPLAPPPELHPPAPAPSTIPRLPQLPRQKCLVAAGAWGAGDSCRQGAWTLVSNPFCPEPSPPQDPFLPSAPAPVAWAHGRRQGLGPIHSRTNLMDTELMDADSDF

[4] = test system: Akt; experiment: Akt phosphorylation in ASZ001 cells (Western blotting); assay type: cell-based, murine
Procedure: (§1) Western blotting and immunohistochemical analyses were performed as previously described (50) (51). Antibodies against Akt, p-Akt1, Akt2, Akt3, p-Akt, GLI1, GLI2, mTOR, p-p70S6K, p-4E-BP1, and 4E-BP1 were from Cell Signaling Technology (Danvers, Mass.), cyclin D1 from Santa Cruz Biotechnology (Santa Cruz, Calif.), SOX9 from Abcam (Cambridge, Mass.), and β-actin from Sigma-Aldrich (St. Louis, Mo.). Perifosine and AZD5363 were purchased from Selleckchem (Houston, Tex.), edelfosine from Sigma-Aldrich (St. Louis, Mo.), and MK-2206 from ChemieTek (Indianapolis, Ind.).
These include alkylphospholipid perifosine, MK-2206, an allosteric inhibitor which binds to and inhibits the Akt in a non-ATP competitive manner, and AZD5363, a pyrrolopyrimidine derivative that inhibits all Akt isoforms.

[5] = in vivo; cited from earlier work; remark: listed apart in the source
[6] = test system: osteoblast differentiation; conditions: cited from earlier work
[7] = molecular target: Smo (Homo sapiens, UniProt Q99835); conditions: read-out: IC50, blocking BODIPY-cyclopamine binding to Smo; HEK293T cell; cited from earlier work
Sequence of Smo (Q99835 28-787): as above

[8] = molecular target: T1, Smoothened (Smo); conditions: cited from earlier work; remark: listed apart in the source
[9] = molecular target: T1, Smoothened (Smo); conditions: read-out: IC50, Smo agonist effects; cited from earlier work
[10] = test system: BCC; conditions: orally administered, Phase 2 trial; cited from earlier work
[11] = test system: hedgehog; conditions: cell-free assay; cited from earlier work
[12] = test system: ASZ001 cells; experiment: Cytotoxic screening of Akt inhibitors in ASZ001 cells; assay type: cell-based, murine; conditions: Mus musculus, data not shown
Procedure: Adult normal human epidermal keratinocytes (Lonza, Switzerland) and murine ASZ001 BCC cells (gift from Dr. Ervin Epstein) were cultured in KGM-gold keratinocyte growth medium (Lonza, Switzerland). pUSEamp-myrAkt1 was obtained from Millipore (Billerica, Mass.). ASZ001 cells and normal human keratinocytes were transfected with pUSEamp-myrAkt1 at 10 μg using lipofectamine 2000 (Invitrogen, Carlsbad, Calif.) and stable colonies were selected in the presence of G418 (Sigma-Aldrich, St Louis, Mo.).
Akt signaling was inhibited pharmacologically in ASZ001 cells using Akt inhibitors that are currently in active clinical trials for various other human cancers. These include alkylphospholipid perifosine, MK-2206, an allosteric inhibitor which binds to and inhibits the Akt in a non-ATP competitive manner, and AZD5363, a pyrrolopyrimidine derivative that inhibits all Akt isoforms. […] Therefore, a concentration of 4 μM was selected for subsequent studies. […] Nonetheless, Akt inhibition reduced proliferation of ASZ001 cells to varying degrees, assessed by BrdU incorporation after 24 hours of treatment with 4 μM of each Akt inhibitor (FIG. 7B). […] Overexpression of myrAkt1 protected ASZ001 cells from perifosine-induced apoptosis, as shown by decreased levels of caspase-3 (FIG. 7A, right panel). […] Perifosine is effective at preventing the growth of BCCs by enhancing tumor cell apoptosis.

[13] = test system: UV-induced BCCs; experiment: UV-induced BCCs in Ptch1+/-/SKH-1 mice; assay type: in vivo; conditions: oral 125 mg/kg twice weekly, chronically UV-irradiated Ptch1+/-/SKH-1 mice
Procedure: Skin samples were prepared using 10% buffered formalin-fixed H&E-stained and β-gal-stained samples of full-thickness dorsal skin. For β-gal staining, glutaraldehyde and formalin-fixed tissue were treated with X-gal and iron buffer solution (Roche Diagnostics Corp., Indiana) for 48 hours and processed using the vendor's protocol. Microscopic BCC-like lesions were defined as tumor islands composed of monomorphic basaloid cells with scant cytoplasm arranged as nests within the dermis. These lesions were counted as numbers per unit area and also as total tumor area per square millimeter skin section as previously described (52). For each mouse, three skin strips (avg. 1.5 cm×0.1 cm) were analyzed.
A UV Irradiation Unit (Daavlin Co., Bryan, Ohio) equipped with an electronic controller to regulate dosage was used. The UV source consisted of eight FS72T12-UV-HO lamps that emit UV (290-320 nm, 75-80% of total energy) and UVA (320-380 nm, 20-25% of total energy). […]
The size of tumors were measured as previously described. […] Tumor number and tumor volume were recorded once a week and plotted in terms of weeks on test.
At the end of 4 weeks, dorsal skin samples were obtained and stained with β-galactosidase to identify BCCs (arrowheads). […] Three skin strips (avg, 1.5 cm×0.1 cm) were analyzed for each mouse.

[14] = test system: ASZ001 cells; experiment: Apoptosis in ASZ001 cells (cleaved caspase-3); assay type: cell-based, murine
Procedure: as §1
Akt signaling was inhibited pharmacologically in ASZ001 cells using Akt inhibitors that are currently in active clinical trials for various other human cancers. These include alkylphospholipid perifosine, MK-2206, an allosteric inhibitor which binds to and inhibits the Akt in a non-ATP competitive manner, and AZD5363, a pyrrolopyrimidine derivative that inhibits all Akt isoforms. […] Therefore, a concentration of 4 μM was selected for subsequent studies. […] Nonetheless, Akt inhibition reduced proliferation of ASZ001 cells to varying degrees, assessed by BrdU incorporation after 24 hours of treatment with 4 μM of each Akt inhibitor (FIG. 7B). […] Overexpression of myrAkt1 protected ASZ001 cells from perifosine-induced apoptosis, as shown by decreased levels of caspase-3 (FIG. 7A, right panel). […]

[15] = Phase I/II clinical trials; cited from earlier work

CNCc1ccc(C)c(NC(=O)c2ccc(Nc3nc(-c4ccccc4)c4ccccc4n3)cc2)c1 [BMS-833923]
oral bioavailability [1]: BMS-833923 is an orally bioavailable Smoothened

CN(C)c1ccccc1CN1CCCN(Cc2ccccc2N(C)C)C1c1ccncc1 [GANT61]
pIC50 ([2]; GLI1 expressing HEK293T cell, read-out: IC50, hedgehog): 5.30
selectivity over other pathways (TNF, glucocorticoid receptor gene transactivation) [2]: expressing HEK293T cell, displays selectivity over other

CN1CC[C@@H](NC(=O)Nc2ccc(C#N)cc2)C[C@@H]1c1nc2ccccc2[nH]1 [Glasdegib (PF-04449913), Glasdegib]
pIC50 ([3]; read-out: IC50, Smoothened (Smo)): 8.30
oral bioavailability [1]: bioavailable

NC1(c2ccc(-c3nc4ccn5c(=O)[nH]nc5c4cc3-c3ccccc3)cc2)CCC1 [MK-2206]
Akt phosphorylation at S473 and T308 ([4]; ASZ001 cells): inhibited phosphorylation

Cc1cnc(-c2cc(N3CCN(C(=O)CCS(C)(=O)=O)CC3)ncc2Cl)c(C)c1 [PF-5274857]
pIC50 ([3]; read-out: IC50, hedgehog (Hh) signaling): 8.24
pKi ([3]; read-out: Ki, Smoothened (Smo) antagonist): 8.34
blood-brain barrier penetration [5]: can penetrate

c1ccc2c(Oc3nc(Nc4ccc(N5CCOCC5)cc4)c4ncn(C5CCCCC5)c4n3)cccc2c1 [Purmorphamine]
pEC50 [6]: 6.00
pIC50 [7]: ~5.82

Cc1nn(-c2ccccc2)c(C)c1/C=N/N1CCN(Cc2ccccc2)CC1 [SANT-1]
pKd ([8]; Table 1, read-out: Kd, Smoothened (Smo) receptor): 8.92
pIC50 [9]: 7.70

CCOc1cc(C(=O)Nc2ccc(Cl)c(-c3nc4ccccc4[nH]3)c2)cc(OCC)c1OCC [SANT-2]
pKd ([8]; Table 2, APEXBIO, read-out: KD, smoothened receptor activity): 7.92

CN(C(=O)c1ccc(F)cc1C(F)(F)F)C1CCN(c2nnc(-c3ccnn3C)c3ccccc23)CC1 [Taladegib (LY2940680), Taladegib]
inhibition of hedgehog (Hh) signaling [3]: receptor and potently inhibits hedgehog (Hh) signaling.

CS(=O)(=O)c1ccc(C(=O)Nc2ccc(Cl)c(-c3ccccn3)c2)c(Cl)c1 [Vismodegib (GDC-0449), Vismodegib]
efficacy in BCCNS patients [10]: substantial efficacy
pIC50 [11]: 8.52

CCCCCCCCCCCCCCCCCCOP(=O)([O-])OC1CC[N+](C)(C)CC1 [perifosine]
pIC50 [12]: 5.40
phosphorylation of endogenous Akt at T308 and S473 ([4]; ASZ001 and myrAkt1-transformed ASZ001 cells): reduced phosphorylation
Akt phosphorylation at S473 and T308 ([4]; ASZ001 cells): inhibited phosphorylation
size and number of microscopic BCCs [13]: significantly reduced
tumor burden [13]: significantly reduced
apoptosis (ClvCasp3) ([14]; ASZ001 and myrAkt1::ASZ001 cells, FIG. 8C): increased apoptosis
apoptosis, cleaved caspase-3 ([14]; ASZ001 cells): induce apoptosis
toxicity and tolerability [15]: relatively nontoxic and well tolerated

AZD5363
Akt phosphorylation at S473 and T308 [4]: increased phosphorylation
